IC50 data for 32 compounds are collected here from US7205295B2, “Benzoxazin-3-ones and derivatives thereof as therapeutic agents” (Warner-Lambert Company LLC, priority 2002, dated 2007).

The target of the test is T1, PI3Kγ (p101/p110γ protein) (Homo sapiens, UniProt P48736).
T1 construct: HA; made in house; host or cells: Spodoptera frugiperda (Sf9) cells, baculovirus co-infection
T1 sequence (P48736 whole entry, species assumed): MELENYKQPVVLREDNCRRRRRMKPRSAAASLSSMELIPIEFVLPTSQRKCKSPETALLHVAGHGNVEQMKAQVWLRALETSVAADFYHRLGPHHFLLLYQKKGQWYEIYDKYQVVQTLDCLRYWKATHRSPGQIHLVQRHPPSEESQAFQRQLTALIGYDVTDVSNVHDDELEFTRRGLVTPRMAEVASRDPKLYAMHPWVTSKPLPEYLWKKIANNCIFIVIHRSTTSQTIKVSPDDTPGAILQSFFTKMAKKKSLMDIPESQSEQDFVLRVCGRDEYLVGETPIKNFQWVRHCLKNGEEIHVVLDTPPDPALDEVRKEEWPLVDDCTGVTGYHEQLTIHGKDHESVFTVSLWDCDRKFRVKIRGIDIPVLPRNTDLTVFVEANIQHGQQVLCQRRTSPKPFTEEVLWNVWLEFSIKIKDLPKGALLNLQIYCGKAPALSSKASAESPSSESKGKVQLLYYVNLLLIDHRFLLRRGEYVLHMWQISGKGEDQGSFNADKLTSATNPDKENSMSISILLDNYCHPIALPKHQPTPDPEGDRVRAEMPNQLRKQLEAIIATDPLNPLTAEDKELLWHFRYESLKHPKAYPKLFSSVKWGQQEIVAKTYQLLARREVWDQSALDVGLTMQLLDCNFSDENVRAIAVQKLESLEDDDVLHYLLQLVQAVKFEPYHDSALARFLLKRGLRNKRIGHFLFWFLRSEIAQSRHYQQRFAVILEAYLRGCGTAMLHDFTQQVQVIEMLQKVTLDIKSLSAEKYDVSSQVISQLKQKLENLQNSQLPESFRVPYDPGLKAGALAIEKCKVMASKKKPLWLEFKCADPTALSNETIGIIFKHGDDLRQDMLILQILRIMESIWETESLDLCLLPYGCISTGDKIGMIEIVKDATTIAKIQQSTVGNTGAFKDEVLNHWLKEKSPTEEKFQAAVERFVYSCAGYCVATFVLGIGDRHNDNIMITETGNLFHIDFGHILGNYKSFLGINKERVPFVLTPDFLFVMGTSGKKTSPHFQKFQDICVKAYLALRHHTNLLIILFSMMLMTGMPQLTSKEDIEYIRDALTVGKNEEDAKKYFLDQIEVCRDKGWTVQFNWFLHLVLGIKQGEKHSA
T1 sequence (Q8WYR1 whole entry partner, species assumed): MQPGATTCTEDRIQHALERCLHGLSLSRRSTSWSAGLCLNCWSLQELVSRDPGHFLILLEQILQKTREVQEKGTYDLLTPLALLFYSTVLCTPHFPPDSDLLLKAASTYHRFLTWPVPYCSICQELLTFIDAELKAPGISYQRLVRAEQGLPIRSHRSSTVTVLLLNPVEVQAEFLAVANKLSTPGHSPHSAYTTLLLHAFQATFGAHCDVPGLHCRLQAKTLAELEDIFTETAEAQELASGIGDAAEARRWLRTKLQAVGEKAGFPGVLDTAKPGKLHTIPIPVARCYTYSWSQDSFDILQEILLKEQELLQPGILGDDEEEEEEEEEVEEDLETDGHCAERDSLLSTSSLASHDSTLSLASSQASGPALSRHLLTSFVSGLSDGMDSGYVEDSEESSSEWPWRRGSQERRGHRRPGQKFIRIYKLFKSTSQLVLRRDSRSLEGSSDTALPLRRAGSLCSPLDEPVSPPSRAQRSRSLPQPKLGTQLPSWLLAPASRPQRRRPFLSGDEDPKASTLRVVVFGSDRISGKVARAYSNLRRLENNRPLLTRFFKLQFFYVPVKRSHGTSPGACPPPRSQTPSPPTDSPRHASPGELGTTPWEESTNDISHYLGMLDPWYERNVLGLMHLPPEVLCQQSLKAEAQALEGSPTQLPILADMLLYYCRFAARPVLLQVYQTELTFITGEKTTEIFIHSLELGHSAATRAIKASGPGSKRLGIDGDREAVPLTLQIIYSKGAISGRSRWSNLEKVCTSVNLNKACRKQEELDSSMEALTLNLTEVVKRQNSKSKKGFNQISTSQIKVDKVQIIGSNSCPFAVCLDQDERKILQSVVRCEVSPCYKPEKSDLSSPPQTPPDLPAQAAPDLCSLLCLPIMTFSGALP
The experiment in a line: PI3Kγ In Vitro Kinase Assay. Type of test: biochemical. To be noted: purified recombinant p101/p110γ with G protein β1/γ2 subunits; 20 μM ATP, 25 μM PIP2; 20 minutes at room temperature. In a few lines: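 Sf9-expressed, purified human p101/p110γ (2.7 nM) was activated by Gβ1/γ2 (57.7 nM) and reacted with 20 μM ATP plus [γ-32P]ATP on PIP2 (25 μM)/PE (300 μM) micelles with 10 mM MgCl2 in HEPES buffer. Reactions ran 20 min at room temperature. Filter-captured radiolabeled PIP3 was counted by scintillation.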
With `O=C1NC(=S)SC1=Cc1ccc2c(c1)N(Cc1ccccc1SC(F)(F)F)C(=O)CO2` [Example 169, 6-(4-Oxo-2-thioxo-thiazolidin-5-ylidenemethyl)-4-(2-trifluoromethylsulfanyl-benzyl)-4H-1,4-benzoxazin-3-one], the 50% inhibitory concentration (IC50) (in general, the concentration at which inhibition is half-maximal) was determined as 8 nM.

As for `CC(C)(C)c1cc(CN2C(=O)COc3ccc(C=C4SC(=S)NC4=O)cc32)cc(C(N)=O)c1` [Example 216, 3-tert-Butyl-5-[3-oxo-6-(4-oxo-2-thioxo-thiazolidin-5-ylidenemethyl)-2,3-dihydro-1,4-benzoxazin-4-ylmethyl]-benzamide], the 50% inhibitory concentration (IC50) turned out to be 26 nM.

For `CC(C)(C)c1cc(CN2CCOCC2)cc(CN2C(=O)COc3ccc(/C=C4\SC(=S)NC4=O)cc32)c1` [Example 278, 4-(3-tert-Butyl-5-morpholin-4-ylmethyl-benzyl)-6-[4-oxo-2-thioxo-thiazolidin-(5Z)-ylidenemethyl]-4H-benzo[1,4]oxazin-3-one], the concentration for half-maximal inhibition (IC50) worked out at 7 nM.

`O=C1NC(=O)C(=Cc2ccc3c(c2)N(Cc2ccc(OCc4ccccc4)cc2)C(=O)CO3)S1` [Example 249, 5-[4-(4-Benzyloxy-benzyl)-3-oxo-3,4-dihydro-2H-1,4-benzoxazin-6-ylmethylene]-thiazolidine-2,4-dione]: the IC50 came to 8 nM.

As for `COC(=O)c1cccc(CN2C(=O)COc3ccc(C=C4SC(=S)NC4=O)cc32)c1` [Example 8, 3-[3-Oxo-6-(4-oxo-2-thioxo-thiazolidin-5-ylidenemethyl)-2,3-dihydro-1,4-benzoxazin-4-ylmethyl]-benzoic acid methyl ester], the IC50 worked out at 81 nM.

Regarding `CC(C)(O)c1cc(CN2C(=O)COc3c(F)cc(C=C4SC(=S)NC4=O)cc32)ccc1Cl` [Example 331, 4-[4-Chloro-3-(1-hydroxy-1-methyl-ethyl)-benzyl]-8-fluoro-6-(4-oxo-2-thioxo-thiazolidin-5-ylidenemethyl)-4H-1,4-benzoxazin-3-one; Compound with Ethane-1,2-diamine], the IC50 was found to be 9 nM.

With `CC(C)(C)c1ccc(CN2C(=O)COc3ccc(C=C4SC(=S)NC4=O)cc32)cc1` [Example 36, 4-(4-tert-Butyl-benzyl)-6-(4-oxo-2-thioxo-thiazolidin-5-ylidenemethyl)-4H-1,4-benzoxazin-3-one], the concentration for half-maximal inhibition (IC50) amounted to 2 nM.

In the case of `O=C1NC(=S)SC1=Cc1ccc2c(c1)N(Cc1cccc(C(F)(F)F)c1)C(=O)CO2` [Example 157, 6-(4-Oxo-2-thioxo-thiazolidin-5-ylidenemethyl)-4-(3-trifluoromethyl-benzyl)-4H-1,4-benzoxazin-3-one], the half-inhibitory concentration (IC50) came out at 21 nM.

On to `Cc1cc(CN2C(=O)COc3ccc(C=C4SC(=S)NC4=O)cc32)cc(C)c1CN1CCOCC1` [Example 39, 4-(3,5-Dimethyl-4-morpholin-4-ylmethyl-benzyl)-6-(4-oxo-2-thioxo-thiazolidin-5-ylidenemethyl)-4H-1,4-benzoxazin-3-one], for which the half-inhibitory concentration (IC50) is 335 nM.

Regarding `O=C1NC(=S)SC1=Cc1ccc2c(c1)N(Cc1ccc(OCc3ccccc3)cc1)C(=O)CO2` [Example 23, 4-(4-Benzyloxy-benzyl)-6-(4-oxo-2-thioxo-thiazolidin-5-ylidenemethyl)-4H-1,4-benzoxazin-3-one], the IC50 is 5 nM.

For the compound `Cc1cc(C)cc(CN2C(=O)COc3ccc(C=C4SC(=S)NC4=O)cc32)c1` [Example 150, 4-(3,5-Dimethyl-benzyl)-6-(4-oxo-2-thioxo-thiazolidin-5-ylidenemethyl)-4H-benzo[1,4]oxazin-3-one], the IC50 turned out to be 5 nM.

Turning to `O=C1NC(=S)SC1=Cc1ccc2c(c1)N(CCc1ccccc1)C(=O)CO2` [Example 5, 6-(4-Oxo-2-thioxo-thiazolidin-5-ylidenemethyl)-4-phenethyl-4H-1,4-benzoxazin-3-one], the IC50 was 25 nM.

For `O=C1NC(=S)SC1=Cc1cc(F)c2c(c1)N(Cc1ccc(Cl)c(C(F)(F)F)c1)C(=O)CO2` [Example 233, 4-(4-Chloro-3-trifluoromethyl-benzyl)-8-fluoro-6-(4-oxo-2-thioxo-thiazolidin-5-ylidenemethyl)-4H-1,4-benzoxazin-3-one], the IC50 came to 35 nM.

`CN(C)S(=O)(=O)c1cccc(CN2C(=O)COc3ccc(C=C4SC(=O)NC4=O)cc32)c1` [Example 256, 3-[6-(2,4-Dioxo-thiazolidin-5-ylidenemethyl)-3-oxo-2,3-dihydro-1,4-benzoxazin-4-ylmethyl]-N,N-dimethyl-benzenesulfonamide]: the IC50 worked out at 20 nM.

In the case of `O=C1CC(=Cc2ccc3c(c2)NC(=O)CO3)C(=O)N1` [Example 86, 3-(3-Oxo-3,4-dihydro-2H-benzo[1,4]oxazin-6-ylmethylene)-pyrrolidine-2,5-dione], the 50% inhibitory concentration (IC50) was determined as 12300 nM.

As for `CC(C)(C)c1cc(CN2C(=O)COc3ccc(C=C4SC(=S)NC4=O)cc32)cc(C(C)(C)C)c1` [Example 32, 4-(3,5-Di-tert-butyl-benzyl)-6-(4-oxo-2-thioxo-thiazolidin-5-ylidenemethyl)-4H-1,4-benzoxazin-3-one], the IC50 worked out at 12 nM.

`COc1cc(C=C2SC(=S)NC2=O)cc2c1OCC(=O)N2Cc1cc(C(C)(C)C)cc(C(C)(C)C)c1` [Example 51, 4-(3,5-Di-tert-butyl-benzyl)-8-methoxy-6-(4-oxo-2-thioxo-thiazolidin-5-ylidenemethyl)-4H-1,4-benzoxazin-3-one]: the IC50 was found to be 165 nM.

`O=C1NC(=S)S/C1=C\c1cnc2c(c1)N(CCc1ccccc1)C(=O)CO2` [Example 267, 7-[4-Oxo-2-thioxo-thiazolidin-(5Z)-ylidenemethyl]-1-phenethyl-1H-pyrido[2,3-b][1,4]oxazin-2-one]: the IC50 worked out at 460 nM.

Consider `CC(C)S(=O)(=O)c1cccc(CN2C(=O)COc3ccc(C=C4SC(=S)NC4=O)cc32)c1` [Example 253, 6-(4-Oxo-2-thioxo-thiazolidin-5-ylidenemethyl)-4-[3-(propane-2-sulfonyl)-benzyl]-4H-1,4-benzoxazin-3-one], for which the half-maximal inhibitory concentration (IC50) turned out to be 16 nM.

As for `O=C1NC(=S)SC1=Cc1ccc2c(c1)N(Cc1cccc(Oc3ccccc3)c1)C(=O)CO2` [Example 170, 6-(4-Oxo-2-thioxo-thiazolidin-5-ylidenemethyl)-4-(3-phenoxy-benzyl)-4H-1,4-benzoxazin-3-one], the IC50 is 9 nM.

Turning to `O=C1COc2ccc(C=C3SC(=S)NC3=O)cc2N1` [Example 1, 6-(4-Oxo-2-thioxo-thiazolidin-5-ylidenemethyl)-4H-1,4-benzoxazin-3-one], the IC50 is 78 nM.

With `O=C1NC(=S)SC1=Cc1ccc2c(c1)N(Cc1ccc([N+](=O)[O-])cc1)C(=O)CO2` [Example 183, 4-(4-Nitro-benzyl)-6-(4-oxo-2-thioxo-thiazolidin-5-ylidenemethyl)-4H-1,4-benzoxazin-3-one], the IC50 amounted to 21 nM.

As to `O=C1NC(=S)SC1=Cc1cc(F)c2c(c1)N(Cc1ccc(CN3CCOCC3)cc1)C(=O)CO2` [Example 71, 8-Fluoro-4-(4-morpholin-4-ylmethyl-benzyl)-6-(4-oxo-2-thioxo-thiazolidin-5-ylidenemethyl)-4H-1,4-benzoxazin-3-one], the IC50 came to 6 nM.

With `CC(C)CCN1C(=O)COc2ccc(C=C3SC(=S)NC3=O)cc21` [Example 144, 4-(3-Methyl-butyl)-6-(4-oxo-2-thioxo-thiazolidin-5-ylidenemethyl)-4H-benzo[1,4]oxazin-3-one], the IC50 came to 24 nM.

`Cc1cc(CN2C(=O)COc3ccc(C=C4SC(=S)NC4=O)cc32)cc(C)n1` [Example 229, 4-(2,6-Dimethyl-pyridin-4-ylmethyl)-6-(4-oxo-2-thioxo-thiazolidin-5-ylidenemethyl)-4H-1,4-benzoxazin-3-one]: the IC50 came out at 20 nM.

On to `Cc1ccc(CN2C(=O)COc3ccc(C=C4SC(=S)NC4=O)cc32)c(C)c1` [Example 100, 4-(2,4-Dimethyl-benzyl)-6-(4-oxo-2-thioxo-thiazolidin-5-ylidenemethyl)-4H-1,4-benzoxazin-3-one], for which the half-inhibitory concentration (IC50) came to 5 nM.

`O=C1NC(=S)SC1=Cc1ccc2c(c1)N(Cc1ccc3ccccc3c1)C(=O)CO2` [Example 11, 4-Naphthalen-2-ylmethyl-6-(4-oxo-2-thioxo-thiazolidin-5-ylidenemethyl)-4H-1,4-benzoxazin-3-one]: the IC50 was found to be 61 nM.

In the case of `O=C1NC(=S)SC1=Cc1ccc2c(c1)N(CC1CC3C=CC1C3)C(=O)CO2` (centres unmarked) [Example 171, 4-Bicyclo[2.2.1]hept-5-en-2-ylmethyl-6-(4-oxo-2-thioxo-thiazolidin-5-ylidenemethyl)-4H-1,4-benzoxazin-3-one], the IC50 was determined as 15 nM.

In the case of `Cc1cc(CN2C(=O)COc3c(F)cc(C=C4SC(=S)NC4=O)cc32)nn1C(C)(C)C` [Example 325, 4-(1-tert-Butyl-5-methyl-1H-pyrazol-3-ylmethyl)-8-flouro-6-(4-oxo-2-thioxo-thiazolidin-5-ylidenemethyl)-4H-benzo[1,4]oxazin-3-one], the 50% inhibitory concentration (IC50) was 18 nM.

For `O=C1NC(=S)OC1=Cc1ccc2c(c1)N(CC1CCCCC1)C(=O)CO2` [Example 261, 4-Cyclohexylmethyl-6-(4-oxo-2-thioxo-oxazolidin-5-ylidenemethyl)-4H-1,4-benzoxazin-3-one], the IC50 amounted to 2 nM.

Turning to `COCCOCOCc1cc(CN2C(=O)COc3ccc(/C=C4\SC(=S)NC4=O)cc32)cc(C(C)(C)C)c1` [Example 274, 4-[3-tert-Butyl-5-(2-methoxy-ethoxymethoxymethyl)-benzyl]-6-[4-oxo-2-thioxo-thiazolidin-(5Z)-ylidenemethyl]-4H-benzo[1,4]oxazin-3-one], the IC50 came out at 13 nM.

As to `O=C1NC(=S)SC1=Cc1cc(Cl)c2c(c1)N(CCc1ccc(Cl)c(Cl)c1)C(=O)CO2` [Example 110, 8-Chloro-4-[2-(3,4-dichloro-phenyl)-ethyl]-6-(4-oxo-2-thioxo-thiazolidin-5-ylidenmethyl)-4H-benzo[1,4]oxazin-3-one], the half-maximal inhibitory concentration (IC50) was determined as 55 nM.
